According to patent US20020026053A1, “Novel 3-(substituted) -2- indolinones compounds and use thereof as inhibitors of protein kinase activity” (priority 1997, published 2002):

target: T1, Met receptor (EGFR/Met chimeric cells, EMR) (Homo sapiens, UniProt P08581); experiment: Met Autophosphorylation Assay; assay type: biochemical
T1 construct: expressed in transfected cells; the other entry of the earlier key: EGFR (P00533, Epidermal growth factor receptor)
How it was run: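 Met phosphorylation was measured by capture ELISA. Lysates (90 μg/100 μl, HNTG plus 1 mM PMSF) from transiently transfected EGFR/Met chimera (EMR) cells were bound for 60 min at room temperature to wells holding rabbit anti-Met (C-28) on goat anti-rabbit coat. Phosphotyrosine was the read-out.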

T1 sequence (P08581 with tags, fused parts or gaps): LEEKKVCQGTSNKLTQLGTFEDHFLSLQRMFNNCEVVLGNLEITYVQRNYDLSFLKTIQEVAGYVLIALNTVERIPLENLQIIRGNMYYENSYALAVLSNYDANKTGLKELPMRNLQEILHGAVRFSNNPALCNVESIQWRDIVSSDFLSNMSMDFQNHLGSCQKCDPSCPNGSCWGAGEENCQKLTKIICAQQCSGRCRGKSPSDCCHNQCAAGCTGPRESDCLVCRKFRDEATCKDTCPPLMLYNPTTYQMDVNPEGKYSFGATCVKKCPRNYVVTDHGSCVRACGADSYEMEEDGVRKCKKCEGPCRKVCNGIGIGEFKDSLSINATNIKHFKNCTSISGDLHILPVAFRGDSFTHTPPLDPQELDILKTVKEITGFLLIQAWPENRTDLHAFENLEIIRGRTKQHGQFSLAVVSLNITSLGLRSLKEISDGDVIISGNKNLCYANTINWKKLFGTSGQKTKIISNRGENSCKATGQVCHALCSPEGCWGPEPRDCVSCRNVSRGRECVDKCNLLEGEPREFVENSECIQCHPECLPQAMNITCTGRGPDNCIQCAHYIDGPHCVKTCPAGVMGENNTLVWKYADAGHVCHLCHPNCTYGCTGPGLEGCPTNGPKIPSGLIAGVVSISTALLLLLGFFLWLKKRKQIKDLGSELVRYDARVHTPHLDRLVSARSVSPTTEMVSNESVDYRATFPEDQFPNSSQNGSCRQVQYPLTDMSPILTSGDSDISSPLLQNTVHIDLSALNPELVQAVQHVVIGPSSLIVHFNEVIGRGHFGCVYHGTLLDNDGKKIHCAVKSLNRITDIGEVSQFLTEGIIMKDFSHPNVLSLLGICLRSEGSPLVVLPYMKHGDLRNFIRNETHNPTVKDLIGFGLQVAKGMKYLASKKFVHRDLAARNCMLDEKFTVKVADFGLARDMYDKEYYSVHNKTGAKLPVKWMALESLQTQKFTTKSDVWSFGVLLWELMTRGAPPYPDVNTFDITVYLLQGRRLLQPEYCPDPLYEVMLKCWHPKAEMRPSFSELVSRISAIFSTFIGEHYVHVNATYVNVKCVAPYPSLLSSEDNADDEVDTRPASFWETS

Compound	Met Kinase % Inhibition (P.130) [%]
O=C1Nc2ccc(S(=O)(=O)Nc3ccc(C(F)(F)F)cc3)cc2C1=Cc1cc(C(F)(F)F)cc(C(F)(F)F)c1 [10735/E06]	33.3
N#Cc1ccccc1C=C1C(=O)Nc2ccc(S(=O)(=O)Nc3ccc(C(F)(F)F)cc3)cc21 [10735/E07]	64.5
O=C1Nc2ccc(S(=O)(=O)Nc3ccc(C(F)(F)F)cc3)cc2C1=Cc1c(F)cccc1F [10735/E08]	35.7
O=C1Nc2ccc(S(=O)(=O)Nc3ccc(C(F)(F)F)cc3)cc2C1=Cc1cccc2ccccc12 [10735/E09]	11.3
O=C1Nc2ccc(S(=O)(=O)Nc3ccc(C(F)(F)F)cc3)cc2C1=Cc1ccc(Cl)cc1Cl [10735/E10]	41.8
O=C1Nc2ccc(S(=O)(=O)Nc3ccc(C(F)(F)F)cc3)cc2C1=Cc1ccc(-c2ccccc2)cc1 [10735/E11]	7.2
Cc1ccccc1C=C1C(=O)Nc2ccc(S(=O)(=O)N3CCOCC3)cc21 [10735/F02]	31.2
O=C1Nc2ccc(S(=O)(=O)N3CCOCC3)cc2C1=Cc1ccc(F)c(F)c1 [10735/F03]	36.1
O=C1Nc2ccc(S(=O)(=O)N3CCOCC3)cc2C1=Cc1cc(F)cc(F)c1 [10735/F04]	41.6
O=C1Nc2ccc(S(=O)(=O)N3CCOCC3)cc2C1=Cc1cccc(C(F)(F)F)c1 [10735/F05]	26.4
O=C1Nc2ccc(S(=O)(=O)N3CCOCC3)cc2C1=Cc1cc(C(F)(F)F)cc(C(F)(F)F)c1 [10735/F06]	39.5
N#Cc1ccccc1C=C1C(=O)Nc2ccc(S(=O)(=O)N3CCOCC3)cc21 [10735/F07]	39.7
O=C1Nc2ccc(S(=O)(=O)N3CCOCC3)cc2C1=Cc1c(F)cccc1F [10735/F08]	18.5
O=C1Nc2ccc(S(=O)(=O)N3CCOCC3)cc2C1=Cc1cccc2ccccc12 [10735/F09]	7.0
O=C1Nc2ccc(S(=O)(=O)N3CCOCC3)cc2C1=Cc1ccc(Cl)cc1Cl [10735/F10]	13.0
O=C1Nc2ccc(S(=O)(=O)N3CCOCC3)cc2C1=Cc1ccc(-c2ccccc2)cc1 [10735/F11]	16.6
Cc1ccccc1C=C1C(=O)Nc2ccc(CCCl)cc21 [10735/G02]	26.0
O=C1Nc2ccc(CCCl)cc2C1=Cc1ccc(F)c(F)c1 [10735/G03]	24.3
O=C1Nc2ccc(CCCl)cc2C1=Cc1cc(F)cc(F)c1 [10735/G04]	28.8
O=C1Nc2ccc(CCCl)cc2C1=Cc1cccc(C(F)(F)F)c1 [10735/G05]	22.2
O=C1Nc2ccc(CCCl)cc2C1=Cc1cc(C(F)(F)F)cc(C(F)(F)F)c1 [10735/G06]	36.1
